# Test system: tongue and oral mucosa
# Test: Oral chemical carcinogenesis by 4NQO in the drinking water
# Assay type: in vivo, C57B1/6 mice
# Conditions: 4NQO 50 μg/ml in drinking water, week 12
# Description: Water was changed weekly.
# Methods: Animal studies were carried out according to NIH-approved protocols, in compliance with the Guide for the Care and Use of Laboratory Animals. Female C57B1/6 mice (Harlan Sprague-Dawley, National Cancer Institute at Frederick, Md., USA) 4-6 weeks old and weighing 18 to 20 g, were housed in appropriate sterile filter-capped cages, and fed and given water ad libitum. […] All animals underwent a bi-weekly full oral cavity examination under anesthesia (2-5% Isoflurane, Baxter, Deerfield, Ill., mixed with oxygen), and any observed pathological changes were documented. Animals were euthanized either on week 16 or week 22 for tissue retrieval. Complete autopsies were performed, and tissues were immediately collected and fixed in buffered zinc-formalin (Z-fix, Anatech, Mich.) at room temperature for 12 h. The tissues were then transferred to alcohol 70%, processed for paraffin embedding for histopathological diagnosis and further studies. […] Animals were monitored daily for general behavioral abnormalities, signs of toxicity, illness or discomfort. Animals were euthanized on week 22, and tissue retrieval was performed as described above.
# Water was replaced weekly, and mice were monitored prior to each water change. […] All animals underwent a bi-weekly full oral cavity examination, and any pathological changes were documented. […]
compound,measurement,value
"O=[N+]([O-])c1cc[n+]([O-])c2ccccc12 [4NQO, 4-nitroquinoline-1 oxide]",mice that developed tumors in the tongue and other areas of the oral mucosa,around 50%
